Reference: PMC7320011, “Rationally designed ruthenium complexes for 1- and 2-photon photodynamic therapy” (Nature Communications, 2020)
Where “and” joins values, the source holds several entries; their conditions need not be identical. Equal values may be shown once. Read-outs that look alike come from different tables or passages of the source.

Columns and labels:
[1] = test system: noncancerous retinal pigment epithelium (RPE-1) cells; assay: (Photo-)cytotoxicity on 2D cell monolayers, RPE-1; conditions: for PI (480 nm): RPE-1, dark vs 480 nm; for PI (540 nm): RPE-1, dark vs 540 nm; for IC50: 1-3 as chloride salts
Procedure: (§3) A total of 4 × 10^3 cells were seeded on 96-well plates and allowed to adhere overnight. The cells were treated with increasing concentrations of the sample diluted in cell media achieving a total volume of 200 μL. The cells were incubated with the sample for 8 h and, after this time, the medium refreshed. To study the phototoxic effect of the sample, the cells were exposed to 480 nm (spectral half-width: 20 nm, 10 min, 5.2 mW cm^−2, 3.1 J cm^−2) or 540 nm (spectral half-width: 30 nm, 40 min, 4.0 mW cm^−2, 9.5 J cm^−2) light using an Atlas Photonics LUMOS BIO irradiator. To study the dark cytotoxicity of the sample, the cells were not irradiated and the medium exchanged. The cells were grown for an additional 40 h at 37 °C. After this time, the medium was replaced with fresh medium containing resazurin with a final concentration of 0.2 mg mL^−1. The cells were incubated for 4 h and the amount of the fluorescent product resorufin determined (λex = 540 nm, λem = 590 nm) with a SpectraMax M2 Microplate Reader (Molecular Devices). The obtained data was analyzed with the GraphPad Prism software.

[2] = test system: human cervical carcinoma (HeLa) cells; assay: (Photo-)cytotoxicity on 2D cell monolayers, HeLa; format: cell-based; conditions: for IC50: 1-3 as chloride salts; for PI (480 nm): dark vs 480 nm; for PI (540 nm): dark vs 540 nm
Procedure: as §3

[3] = test system: human glioblastoma astrocytoma (U373) cells;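 also: Resazurin-to-resorufin fluorescence viability readout, 8 h compound exposure then medium change, light dose 3.1 J cm^−2 at 480 nm or 9.5 J cm^−2 at 540 nm, analysed 40 h later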
Procedure: as §3

[4] = Photostability (absorption spectra upon irradiation); format: physicochemical; conditions: 450 nm, 0 to 10 min (13.2 J cm^−2), air-saturated acetonitrile
Procedure: The sample was prepared in an air-saturated acetonitrile solution. Using a Atlas Photonics LUMOS BIO irradiator, the sample was constantly irradiated at 450 nm in time intervals from 0 to 10 min (13.2 J cm^−2). The absorption spectra from 350 to 700 nm was monitored with a SpectraMax M2 Microplate Reader (Molecular Devices) at each time interval. As positive and negative controls, respectively, [Ru(2,2′-bipyridine)3]Cl2 and Protoporphyrin IX were used.

[5] = test system: HeLa MCTS; assay: (Photo-)cytotoxicity on 3D MCTS (ATP concentration); format: cell-based, human; conditions: for IC50: 1-3 as chloride salts; for PI (1P irradiation): dark vs 500 nm; for PI (2P irradiation): dark vs 800 nm
Procedure: The cytotoxicity of the compounds in 3D MCTS was assessed by measurement of the ATP concentration. MCTS were treated with increasing concentrations of the compound (2% DMSO, v%) by replacing 50% of the media with drug supplemented media and incubation for 12 h. After this time, the MCTS were divided in three identical groups. The first group was strictly kept in the dark. The second group was exposed to a 1-Photon irradiation (500 nm, 16.7 min, 10.0 mW cm^−2, and 10 J cm^−2) using a LED light source and the third group was exposed to a 2-Photon irradiation (800 nm, 10 J cm^−2 with a section interval of 5 μm) using a LSM 880 (Carl Zeiss, Germany) laser scanning confocal microscope equipped with a Coherent Chameleon 2-Photon laser. After the irradiation, all groups were incubated additional 48 h. The ATP concertation was measured using a CellTiter-Glo 3D Cell Viability kit (Promega) by measuring the generated chemiluminescence with an infinite M200 PRO (Tecan) plate reader.

[6] = In vivo time-dependent biodistribution (ICP-MS); design: species or system mouse; conditions: chloride salt, SW620/AD300 tumor-bearing nude mice
Procedure: (§1) Six weeks old nu/nu female mice were purchased from Charles River. For the tumor xenograft, 6 × 10^6 SW620/AD300 cells were subcutaneously (s.c.) injected with a 150 μL Matrigel and saline (1:1, v/v) suspension into the mice. After a week, the tumor volumes of the mice reached ~80 mm^3. All experiments were conducted in compliance with the ethical regulations for animal testing and received approval of the experimental animal managing committee of Sun Yat Sen University.
Three nude mice were tail-intravenous (i.v.) injected with 2 mg kg^−1 of the sample. One hour later, the mice were sacrificed and the major organs (including the heart, liver, spleen, lung, kidney, brain, intestine, and blood) were separated, weighted and ground. The grinded organ as well as the blood were digested using a 60% HNO3 solution for 3 days, and following this, diluted to a 2% HNO3 solution in water. The Ru content was determined with an ICP-MS apparatus and the results compared with the Ru references.
Six SW620/AD300 nude tumor-bearing nude mice were separated into three groups, and i.v. injected with 2 mg kg^−1 of the sample. 30 min, 1 h, 2 h later, the mice were euthanized and the distribution of the sample determined using the previous described method.

[7] = In vivo tolerability: body weight, behaviour, H&E histology; design: species or system mouse; conditions: 2 mg kg^−1 i.v.
Procedure: (§2) The mice were anesthetized by injection of a 4% chloral hydrate aqueous solution (0.2 mL, 20 g^−1) before the treatment. The tumor volume and body weight were measured and recorded every 2 days. Tumor volume was calculated by the following formula:6 Volume=Length×Width^2/2.
The tumor and all major organs (including the heart, liver, spleen, lung, kidney, brain, intestine, and blood) were collected and a slice of each one was fixated with 4% paraformaldehyde. The obtained slices were stained with hematoxylin and eosin. The histological images were taken with a Carl Zeiss Axio Imager Z2 microscope.

[8] = test system: doxorubicin-selected P-gp-overexpressing human colon cancer tumor (SW620/AD300); assay: In vivo PDT on tumor-bearing nude mice; design: species or system mouse; conditions: chloride salt, 2 mg kg^−1 i.v.
Procedure: as §1
30 SW620/AD300 nude tumor-bearing nude mice were randomly separated into six groups, resulting in five mice for each group. After been anaesthetized, the mice was fixed in a warm three-axes holder. Before irradiation, the tumor site was disinfected with ethanol. The tumor was exposed to 1P or 2P light. Following the irradiation, the operative area was disinfection by iodophor.
Group 1: injected 7 (2 mg kg^−1, 50 μL) intravenously and irradiate under 800 nm laser (50 mW, 1 kHz, pulse width 35 fs, 5 s mm^−1) 1 h after injection; […]
as §2

[9] = read-out: IC50 540 nm (40 min, 9.5 J cm-2), RPE-1, 540 nm
[10] = read-out: IC50 dark, RPE-1, dark
[11] = 480 nm, read-out: IC50 480 nm (10 min, 3.1 J cm-2)
[12] = 540 nm, read-out: IC50 540 nm (40 min, 9.5 J cm-2)
[13] = 1P 500 nm, read-out: IC50 1P irradiation (500 nm, 10 J cm-2)
[14] = 2P 800 nm, section interval 5 μm, read-out: IC50 2P irradiation (800 nm, 10 J cm-2)

C(=C\c1ccnc(-c2cc(/C=C/c3ccccc3)ccn2)c1)/c1ccccc1.C(=C\c1ccnc(-c2cc(/C=C/c3ccccc3)ccn2)c1)/c1ccccc1.C(=C\c1ccnc(-c2cc(/C=C/c3ccccc3)ccn2)c1)/c1ccccc1.F[P-](F)(F)(F)(F)F.F[P-](F)(F)(F)(F)F.[Ru+2] [compound 1]
PI (480 nm) [1]: > 3.2
PI (540 nm) [1]: > 3.2
IC50 [1, 9]: 31.7 µM
IC50 [1, 10]: > 100 µM
IC50 [2, 11]: 29.5 µM
IC50 [2, 12]: 48.7 µM
PI (480 nm) [2]: > 3.4
PI (540 nm) [2]: > 2.1
IC50 ([2]; dark, read-out: IC50 dark): > 100 µM
IC50 [3]: 83.1 µM
photostability (change of absorption spectra upon irradiation) [4]: no significant differences in the absorption spectra

CN(C)c1ccc(/C=C/c2ccnc(-c3cc(/C=C/c4ccc(N(C)C)cc4)ccn3)c2)cc1.CN(C)c1ccc(/C=C/c2ccnc(-c3cc(/C=C/c4ccc(N(C)C)cc4)ccn3)c2)cc1.F[P-](F)(F)(F)(F)F.F[P-](F)(F)(F)(F)F.[Ru+2].c1ccc(-c2ccccn2)nc1 [compound 4, [Ru(2,2′-bipyridine)((E,E′)-4,4′-Bis[p-(N,N-dimethylamino)styryl]-2,2′-bipyridine)2][PF6]2]
PI (480 nm) [1]: > 9.2
PI (540 nm) [1]: > 6.8
IC50 [1, 9]: 14.7 µM
IC50 [1, 10]: > 100 µM
IC50 [2, 11]: 8.5 µM
IC50 [2, 12]: 10.6 µM
PI (480 nm) [2]: > 11.8
PI (540 nm) [2]: > 9.4
IC50 ([2]; dark, read-out: IC50 dark): > 100 µM
IC50 [5, 13]: 78.3 ± 5.1 µM
IC50 [5, 14]: 63 ± 4.2 µM
PI (1P irradiation) [5]: > 1.3
PI (2P irradiation) [5]: > 1.6
IC50 [3]: 19 µM
photostability (change of absorption spectra upon irradiation) [4]: small changes in the absorption spectra

COc1ccc(/C=C/c2ccnc(-c3cc(/C=C/c4ccc(OC)cc4)ccn3)c2)cc1.COc1ccc(/C=C/c2ccnc(-c3cc(/C=C/c4ccc(OC)cc4)ccn3)c2)cc1.F[P-](F)(F)(F)(F)F.F[P-](F)(F)(F)(F)F.[Ru+2].c1ccc(-c2ccccn2)nc1 [compound 5, [Ru(2,2′-bipyridine)((E,E′)-4,4′-Bis[p-methoxystyryl]-2,2′-bipyridine)2][PF6]2]
PI (480 nm) [1]: > 9.8
PI (540 nm) [1]: > 7.9
IC50 [1, 9]: 12.7 µM
IC50 [1, 10]: > 100 µM
IC50 [2, 11]: 6.4 µM
IC50 [2, 12]: 7.9 µM
PI (540 nm) [2]: > 12.7
IC50 ([2]; dark, read-out: IC50 dark): > 100 µM
IC50 [5, 13]: 19.3 ± 2.7 µM
IC50 [5, 14]: 13.4 ± 3.9 µM
PI (1P irradiation) [5]: > 5.2
PI (2P irradiation) [5]: > 7.5
IC50 [3]: 17.8 µM
photostability (change of absorption spectra upon irradiation) [4]: no significant differences in the absorption spectra

CN(C)c1ccc(/C=C/c2ccnc(-c3cc(/C=C/c4ccc(N(C)C)cc4)ccn3)c2)cc1.F[P-](F)(F)(F)(F)F.F[P-](F)(F)(F)(F)F.[Ru+2].c1ccc(-c2ccccn2)nc1.c1ccc(-c2ccccn2)nc1 [compound 6, [Ru(2,2′-bipyridine)2((E,E′)-4,4′-Bis[p-(N,N-dimethylamino)styryl]-2,2′-bipyridine)][PF6]2]
PI (480 nm) [1]: > 13.7
PI (540 nm) [1]: > 12.3
IC50 [1, 9]: 8.1 µM
IC50 [1, 10]: > 100 µM
IC50 [2, 11]: 5.3 µM
IC50 [2, 12]: 5.8 µM
PI (480 nm) [2]: > 18.9
PI (540 nm) [2]: > 17.2
IC50 ([2]; dark, read-out: IC50 dark): > 100 µM
IC50 [5, 13]: 33.8 ± 3.4 µM
IC50 [5, 14]: 26.5 ± 2.9 µM
PI (1P irradiation) [5]: > 8.9
PI (2P irradiation) [5]: > 11.3
IC50 ([5]; dark, read-out: IC50 dark): > 300 µM
IC50 [3]: 10.7 µM
photostability (change of absorption spectra upon irradiation) [4]: small changes in the absorption spectra

COc1ccc(/C=C/c2ccnc(-c3cc(/C=C/c4ccc(OC)cc4)ccn3)c2)cc1.F[P-](F)(F)(F)(F)F.F[P-](F)(F)(F)(F)F.[Ru+2].c1ccc(-c2ccccn2)nc1.c1ccc(-c2ccccn2)nc1 [compound 7, [Ru(2,2′-bipyridine)2((E,E′)-4,4′-Bis[p-methoxystyryl]-2,2′-bipyridine)][PF6]2]
time until absorbed from the blood stream ([6]; 2 mg kg^−1 i.v. tail injection): ≤ 1 h
organ accumulation (Ru content) ([6]; 2 mg kg^−1 i.v.): high accumulation in the intestine and some accumulation in the tumor
PI (480 nm) [1]: > 32.3
PI (540 nm) [1]: > 11.9
IC50 [1, 9]: 8.4 µM
IC50 [1, 10]: > 100 µM
IC50 [2, 11]: 1.2 µM
IC50 [2, 12]: 1.5 µM
PI (480 nm) [2]: > 83.3
PI (540 nm) [2]: > 66.7
IC50 ([2]; dark, read-out: IC50 dark): > 100 µM
IC50 [5, 13]: > 6.8 µM and 6.8 µM
IC50 [5, 14]: > 1.4 µM and 1.4 µM
PI (1P irradiation) [5]: > 44 and > 44.1
PI (2P irradiation) [5]: > 250 and > 214.3
IC50 ([5]; dark, read-out: IC50 dark): > 300 µM
histology of all other organs (H&E) ([7]; exposed to light): did not show any significant effect
histology of tumor tissue (H&E) ([7]; exposed to light): pathological alterations caused by the PDT treatment
behaviour of treated mice ([7]; nude mice): behaved normally, without signs of pain, stress or discomfort
body weight of treated mice ([7]; nude mice): did not lose or gain weight
IC50 [3]: 13.5 µM
photostability (change of absorption spectra upon irradiation) [4]: no significant differences in the absorption spectra
tumor growth after one PDT treatment ([8]; 1P (500 nm, 36 J cm^−2) or 2P (800 nm, 50 mW) irradiation 1 h after injection, 80 mm^3 tumor): drastically shrank until they were nearly eradicated
tumor growth without irradiation ([8]; dark): kept growing

COc1ccc(/C=C/c2ccnc(-c3cc(/C=C/c4ccc(OC)cc4)ccn3)c2)cc1.COc1ccc(/C=C/c2ccnc(-c3cc(/C=C/c4ccc(OC)cc4)ccn3)c2)cc1.COc1ccc(/C=C/c2ccnc(-c3cc(/C=C/c4ccc(OC)cc4)ccn3)c2)cc1.F[P-](F)(F)(F)(F)F.F[P-](F)(F)(F)(F)F.[Ru+2] [compound 3, [Ru((E,E′)-4,4′-Bis[p-methoxystyryl]-2,2′-bipyridine)3][PF6]2]
PI (480 nm) [1]: > 1.9
PI (540 nm) [1]: > 2.2
IC50 [1, 9]: 44.9 µM
IC50 [1, 10]: > 100 µM
IC50 [2, 11]: 15.3 µM
IC50 [2, 12]: 11.3 µM
PI (480 nm) [2]: > 6.5
PI (540 nm) [2]: > 8.8
IC50 ([2]; dark, read-out: IC50 dark): > 100 µM
IC50 [5, 14]: 87.3 ± 6.8 µM
PI (2P irradiation) [5]: > 1.1
IC50 [3]: 51.3 µM
photostability (change of absorption spectra upon irradiation) [4]: no significant differences in the absorption spectra
